Laboratory results: patent publication US8796217B2, “Use of transesterified olive oil in the cosmetic field” (Hallstar Italia S.R.L., priority 2008, dated 2014)

What was measured:
[1] = Transepidermal water loss (TEWL) after topical application in volunteers; type: in vivo, human; conditions: 5% ingredient applied topically, ten volunteers
Excerpt: The clinical efficiency of bio-compatible liquid crystals generated by cetearyl-olivate, sorbitan-olivate was clinically verified. Firstly, its skin biocompatibility was verified in a study on its effect on transepidermal water loss (TEWL) with respect to other lipidic compositions. TEWL is a convalidated method for assessing the skin permeability barrier function (Fluhr, 2006). Ten volunteers have applied topically identical concentrations (5%) of the following ingredients: cetearyl-olivate, sorbitan-olivate; cetearyl alcohol, cetearyl-glucoside and poliglyceril-3 methylglucose distearate. The results—see FIG. 4—have shown that the application of cetearyl-olivate, sorbitan-olivate reduced the increase of TEWL by 29% over control formulae (FIG. 2).

[2] = test system: Reconstructed Human Epidermis (RHE) keratinocytes; test: MTT assay of keratinocyte vitality on the RHE; type: cell-based; conditions: MTT assay on RHE at 24 hour instant
Protocol: Keratinocyte vitality was ascertained using the MTT assay: MTT salt (3-(4,5-dimetil-tiaol-2-il)-2,5 diphenyltetrazolium bromide) may be reduced through the mitochondrial enzyme succinate-dehydrogenase found in living cells. The reduction product, formazan crystals, may be quantified by optic density at […] and is proportional to the number of living cells. The MTT assay was performed on the RHE at the 24 hour instant.

Molecule | induced TEWL / water loss following application [1] | Cell vitality (%) [2]
poliglyceril-3 methylglucose distearate | activate excessive water loss following application | 
Cn1c(=O)c2c(ncn2C)n(C)c1=O [Control (pure caffeine), caffeine] |  | 100%
